Assay [1] relates to Escherichia coli. The assay can be described thus: Antibacterial activity against Escherichia coli at 30 ug/disk. It counts as functional, organism-based.
The subject of a further assay is Rhizomucor miehei. Briefly: Antifungal activity against Mucor miehei. The format is functional, organism-based.
Assay [2] relates to Pseudomonas aeruginosa. The assay can be described thus: Antibacterial activity against Pseudomonas aeruginosa at 30 ug/disk. The format is functional.
In the next assay the test system is Bacillus subtilis. Briefly: Antibacterial activity against Bacillus subtilis. It counts as functional, organism-based.
Assay [3] deals with Staphylococcus aureus. Briefly: Antibacterial activity against Staphylococcus aureus at 30 ug/disk. It counts as functional. Particulars: for zone of inhibition at 30 µg/disc: read-out: IZ.
Another assay deals with Candida albicans. Briefly: Antifungal activity against Candida albicans. The format is functional, organism-based.
Assay [4] deals with Staphylococcus aureus. Briefly: Antibacterial activity against Staphylococcus aureus at 40 ug/disk. It counts as functional. Particulars: for zone of inhibition at 40 µg/disc: read-out: IZ.
Assay [5] has as its system Pseudomonas aeruginosa. The assay can be described thus: Antibacterial activity against Pseudomonas aeruginosa at 40 ug/disk. It counts as functional, organism-based.
Assay [6] has as its system Escherichia coli. Briefly: Antibacterial activity against Escherichia coli at 40 ug/disk. It counts as functional. Particulars: for zone of inhibition at 40 µg/disc: read-out: IZ.
Assay [7] concerns Pseudomonas aeruginosa. Briefly: Antibacterial activity against Pseudomonas aeruginosa at 1 ug/disk. It counts as functional. Conditions: read-out: IZ.
Assay [8] has as its system Escherichia coli. Briefly: Antibacterial activity against Escherichia coli at 1 ug/disk. It counts as functional. Particulars: read-out: IZ.
Assay [9] has as its system Staphylococcus aureus. Briefly: Antibacterial activity against Staphylococcus aureus at 1 ug/disk. The format is functional. Particulars: read-out: IZ.
In assay [10] the test system is Escherichia coli. Briefly: Antibacterial activity against Escherichia coli at 24 ug/disk. The format is functional, organism-based.
Assay [11] concerns Pseudomonas aeruginosa. Briefly: Antibacterial activity against Pseudomonas aeruginosa at 24 ug/disk. The format is functional, organism-based.
Assay [12] deals with Staphylococcus aureus. The assay can be described thus: Antibacterial activity against Staphylococcus aureus at 24 ug/disk. It counts as functional, organism-based.

Active and inactive are the calls of the source. No cut-off for these calls is given here.

With `COC(=O)c1ccc(OC)c(O)c1N`, the “inhibition zone (IZ)” value with Escherichia coli [1] and in the assay on Pseudomonas aeruginosa [2] was “inactive” in each case. Moreover, the outcome in the assay on Rhizomucor miehei, in the assay with Bacillus subtilis and with Candida albicans was inactive. Also, the zone of inhibition at 30 µg/disc with Staphylococcus aureus [3] came out at 11 mm.
Regarding `CCC1=CN2C(=O)c3ccc(OC)c(O)c3NC(=O)[C@@H]2C1`, the “inhibition zone (IZ)” value in the assay with Staphylococcus aureus [4], in the assay on Pseudomonas aeruginosa [5] and with Escherichia coli [6] was “inactive” each time. Besides, the result with Rhizomucor miehei, in the assay on Bacillus subtilis and with Candida albicans was inactive.
Turning to `CC1(C)S[C@@H]2[C@H](NC(=O)[C@H](N)c3ccccc3)C(=O)N2[C@H]1C(=O)O` [AMPICILLIN], the result with Rhizomucor miehei, in the assay on Bacillus subtilis and in the assay with Candida albicans was inactive. The figures for the zone of inhibition at 1 µg/disc in the assay with Pseudomonas aeruginosa [7], with Escherichia coli [8] and with Staphylococcus aureus [9] were 30 mm, 25 mm and 13 mm, respectively.
On to `C/C=C1\C[C@H]2[C@@H](O)Nc3ccccc3C(=O)N2C1`, for which the “inhibition zone (IZ)” value in the assay with Escherichia coli [1], in the assay with Pseudomonas aeruginosa [2] and in the assay on Staphylococcus aureus [3] was “inactive” each time. For the same compound, the outcome in the assay with Rhizomucor miehei, in the assay with Bacillus subtilis and in the assay on Candida albicans was inactive.
In the case of `CCc1cc2cnc3c(O)c(OC)ccc3c(=O)n2c1` [LIMAZEPINE D], the “inhibition zone (IZ)” value with Escherichia coli [1] was “inactive”. Besides, the outcome in the assay on Rhizomucor miehei, with Bacillus subtilis and in the assay with Candida albicans was inactive. In addition, the values for the zone of inhibition at 30 µg/disc in the assay on Pseudomonas aeruginosa [2] (read-out: IZ) and with Staphylococcus aureus [3] were 9 mm and 7 mm, respectively.
For `C/C=C1\C[C@H]2C=Nc3ccccc3C(=O)N2C1`, the “inhibition zone (IZ)” value in the assay on Escherichia coli [1], in the assay on Pseudomonas aeruginosa [2] and with Staphylococcus aureus [3] was “inactive” throughout. Further, the result with Rhizomucor miehei, with Bacillus subtilis and with Candida albicans was inactive.
As to `CCc1c[nH]c(C=O)c1`, the result with Rhizomucor miehei, with Bacillus subtilis and with Candida albicans was inactive. For the same compound, the “inhibition zone (IZ)” value in the assay with Escherichia coli [10], in the assay with Pseudomonas aeruginosa [11] and in the assay on Staphylococcus aureus [12] was “inactive” throughout.
Consider `C/C=C1\C[C@H]2C=Nc3c(ccc(OC)c3O)C(=O)N2C1` [LIMAZEPINE E], for which the values for the zone of inhibition at 40 µg/disc in the assay on Staphylococcus aureus [4] and in the assay on Escherichia coli [6] were 12 mm and 10 mm, respectively. The “inhibition zone (IZ)” value in the assay on Pseudomonas aeruginosa [5] was “inactive”. Moreover, the outcome with Rhizomucor miehei, with Bacillus subtilis and with Candida albicans was inactive.
On to `CCC1=CN2C(=O)c3ccc(OC)c(O)c3N=C[C@@H]2C1` [LIMAZEPINE C], for which the zone of inhibition at 40 µg/disc came to 18 mm in the assay on Staphylococcus aureus [4] and 10 mm in the assay with Escherichia coli [6]. Besides, in the assay with Pseudomonas aeruginosa [5], the “inhibition zone (IZ)” value was “inactive”. Moreover, the result with Rhizomucor miehei, in the assay on Bacillus subtilis and in the assay with Candida albicans was inactive.

Source of the values: ChEMBL document CHEMBL1151897, “Limazepines A-F, pyrrolo[1,4]benzodiazepine Antibiotics from an Indonesian Micrococcus sp” (2009).
